Experimental data reported in US11219623B2, “Inflammasome inhibition for the treatment of Parkinson's disease, Alzheimer's disease and multiple sclerosis” (University of Kentucky Research Foundation, priority 2015, dated 2022).
Entries after “also recorded” stand apart in the source; their conditions may differ.

What was measured:
[1] = test system: IL-1 beta; experiment: Nigericin-induced IL-1 beta maturation, mouse bone marrow-derived macrophages; assay type: cell-based; conditions: 100, 250 uM
[2] = test system: primary human RPE cells; experiment: Extracellular potassium after Alu RNA transfection, potassium-dependent pyruvate kinase assay; assay type: cell-based; conditions: 6 hours
Experimental: For FIG. 18, potassium levels were determined in cell culture supernatants spectrophotometrically using a potassium-dependent pyruvate kinase assay.

[3] = test system: mice; experiment: Iron-induced RPE degeneration in mice; assay type: in vivo, mouse; conditions: intraperitoneal 25 mg/kg days 1 to 6; read day 7
[4] = target: T1, rat P2X7 receptor (Rattus norvegicus, UniProt Q64663); experiment: P2X7 cation channel function, patch clamp, HEK293 cells expressing rat P2X7; assay type: cell-based; conditions: rat P2X7 in HEK293
T1 construct: expressed in transfected cells; host or cells: HEK293 cells

[5] = test system: Caspase-1; experiment: Alu RNA-induced Caspase-1 activation, primary mouse RPE cells; assay type: cell-based
[6] = test system: primary human RPE cells; experiment: ATP release induced by Alu RNA, ATP-dependent luciferase assay, primary human RPE cells; assay type: cell-based; conditions: cell culture supernatant
Description: Alu RNA (Kerur et al., 2013) and LPS/ATP (Qu et al., 2011) activate the inflammasome via the ATP receptor P2X7.
(FIG. 16) Primary human RPE cells treated with Alu RNA for the times indicated release ATP. […] ATP was detected using an ATP-dependent luciferase assay.

[7] = test system: IRAK4; experiment: LPS/ATP-induced IRAK4 phosphorylation, primary human RPE cells; assay type: cell-based; conditions: 25/100 uM
Description: (§1) The loading control in FIG. 8 is vinculin. Furthermore, as shown, LPS and ATP activate the NLRP3 inflammasome only in combination, thus treatment with one or the other alone is useful as a control for this experiment.

[8] = NLRP3- and P2X7-driven model of sterile liver inflammation; conditions: in vivo
Description: To explore the potential therapeutic relevance of NRTIs beyond the Alu-induced model of geographic atrophy (GA), it was hypothesized that if NRTIs function as generic inflammasome inhibitors, then they might be broadly useful in other animal models of disease that are also driven by P2X7.

[9] = test system: Caspase-1; experiment: LPS/ATP-induced Casp-1 activation, primary human RPE cells; assay type: cell-based; conditions: 25/100 uM
Description: as §1

[10] = target: T2, human P2X7 receptor (Homo sapiens, UniProt Q99572); conditions: 64 μM drug; bzATP 100 μM; n=12
T2 sequence (Q99572 1-595): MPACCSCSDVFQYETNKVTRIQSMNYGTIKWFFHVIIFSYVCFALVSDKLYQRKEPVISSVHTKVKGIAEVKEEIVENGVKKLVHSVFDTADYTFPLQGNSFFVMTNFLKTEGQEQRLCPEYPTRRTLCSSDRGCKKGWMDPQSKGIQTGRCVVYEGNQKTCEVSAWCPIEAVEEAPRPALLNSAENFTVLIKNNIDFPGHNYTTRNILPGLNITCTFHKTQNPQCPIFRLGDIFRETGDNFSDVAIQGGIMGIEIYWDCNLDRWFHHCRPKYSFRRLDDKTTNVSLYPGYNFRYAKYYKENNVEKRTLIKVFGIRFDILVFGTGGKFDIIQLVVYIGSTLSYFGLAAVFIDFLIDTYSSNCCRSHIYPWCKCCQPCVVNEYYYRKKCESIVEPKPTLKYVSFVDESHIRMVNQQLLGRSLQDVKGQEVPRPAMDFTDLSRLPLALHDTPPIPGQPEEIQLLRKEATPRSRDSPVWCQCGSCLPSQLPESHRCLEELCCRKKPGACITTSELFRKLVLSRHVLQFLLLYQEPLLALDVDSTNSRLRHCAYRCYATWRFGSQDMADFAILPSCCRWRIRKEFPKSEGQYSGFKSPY

[11] = test system: Caspase-1; experiment: Nigericin-induced Caspase-1 activation, mouse bone marrow-derived macrophages; assay type: cell-based; conditions: 100, 250 uM
[12] = test system: GFP-expressing lentivirus; experiment: GFP-expressing lentivirus transduction/replication assay in HeLa cells; assay type: cell-based
Experimental: All drugs were added at a concentration of 10 μM. Cells were imaged for GFP expression 72 hours after addition of lentivirus. GFP-positive cells per field of view were recorded. n=4-11, error bars S.E.M. Reverse transcription of lentivirus is essential for GFP expression; modified NRTIs should not block reverse transcriptase, whereas NRTIs are known to block reverse transcriptase.
(§2) The present disclosure further provides the results of additional experiments in FIG. 21-FIG. 23.

[13] = test system: human LINE-1 retrotransposon; experiment: EGFP cell culture L1 retrotransposition assay in HeLa cells; assay type: cell-based; conditions: 7 days after transfection, flow cytometry
Experimental: These findings pave way for the rational re-design and improvement of nucleoside analogs as novel therapeutics. The enhanced green fluorescent protein (EGFP) cell culture L1 retrotransposition assay was performed in HeLa cells. […] Transfected cells were selected in puromycin. 7 days after transfection, cells that underwent retrotransposition (EGFP-positive) were assayed by flow cytometry. Cells were gated based on background fluorescence of plasmid JM111, which has two point mutations in L1-ORF1 that abolish retrotransposition. Data are normalized with RPS set to 1.

[14] = test system: mtDNA; experiment: mtDNA levels, real-time quantitative PCR, primary mouse RPE cells; assay type: cell-based; conditions: normalized to chromosomal DNA, n=4
Description: as §2

[15] = test system: wild-type mice; experiment: Alu RNA-induced RPE degeneration, mouse model of dry AMD; conditions: co-delivered to the vitreous humor; one week after delivery
[16] = test system: wild-type mice; experiment: pAlu-induced RPE degeneration, mouse model of dry AMD; assay type: in vivo; conditions: daily oral administration
Experimental: Mouse studies were conducted to study treatment with NRTIs or derivatives.

[17] = test system: Caspase-1; experiment: Alu RNA-induced Caspase-1 activation, western blot, primary human RPE cells; assay type: cell-based
Description: The bottom row in FIG. 5 is a vinculin loading control.

[18] = test system: Alu RNA; experiment: Alu RNA levels, Northern blotting, primary human RPE cells; assay type: cell-based
Description: As presented in FIG. 3, primary human RPE cells treated with antisense oligonucleotides targeting DICER1 (Dcr as) (lane 3 (third lane from left)) show increased Alu RNA levels in the nuclear compartment compared to control antisense oligonucleotides (Ctr as) (lane 1 (leftmost)), monitored by Northern blotting using an Alu-specific probe.
For example, primary human RPE cells may be transfected with Alu RNA, with or without d4T. […] U6 (bottom row) is shown as loading control for nuclear fraction in FIG. 4.
And FIG. 45 presents a Northern blot of biotin-UTP-labeled Alu RNA-transfected primary human RPE cells.

[19] = test system: Caspase-1; experiment: LPS/ATP-induced Caspase-1 activation, mouse bone marrow-derived macrophages, western blot

T1 sequence (Q64663 whole entry): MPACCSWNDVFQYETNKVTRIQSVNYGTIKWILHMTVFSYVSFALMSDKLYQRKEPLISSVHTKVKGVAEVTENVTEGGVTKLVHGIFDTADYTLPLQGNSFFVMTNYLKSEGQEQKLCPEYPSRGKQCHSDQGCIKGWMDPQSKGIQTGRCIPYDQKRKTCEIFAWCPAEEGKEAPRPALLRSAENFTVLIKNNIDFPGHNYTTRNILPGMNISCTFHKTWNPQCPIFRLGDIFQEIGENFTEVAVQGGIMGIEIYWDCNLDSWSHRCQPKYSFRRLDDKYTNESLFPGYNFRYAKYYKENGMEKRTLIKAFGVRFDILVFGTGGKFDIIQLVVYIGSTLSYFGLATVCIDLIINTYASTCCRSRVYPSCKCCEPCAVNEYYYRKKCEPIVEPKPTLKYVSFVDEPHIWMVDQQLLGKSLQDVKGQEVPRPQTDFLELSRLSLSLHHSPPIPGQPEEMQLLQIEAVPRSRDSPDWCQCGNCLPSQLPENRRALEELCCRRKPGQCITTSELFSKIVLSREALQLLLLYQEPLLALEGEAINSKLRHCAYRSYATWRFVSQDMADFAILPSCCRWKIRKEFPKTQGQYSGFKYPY

## Cc1cn([C@H]2C=C[C@@H](CO)O2)c(=O)[nH]c1=O [d4T, 2′3′ dideoxythymidine]
[1]
  IL-1 beta maturation (18 and 22 kDa forms) induced by nigericin: inhibits IL-1 beta maturation
[2]
  extracellular potassium levels after Alu RNA transfection: reduces extracellular potassium levels
[3]
  Iron-induced RPE degeneration: blocked the development of RPE degeneration
[4]
  P2X7 cation channel function: did not significantly modulate P2X7 cation channel function
[5]
  Caspase 1 cleavage to active 20 kDa form induced by Alu RNA: prevents Caspase 1 cleavage
[6]
  ATP release induced by Alu RNA: does not block release of ATP; also recorded: did not affect ATP release
[7]
  IRAK4 phosphorylation induced by LPS/ATP: blocks
[8]
  neutrophil migration to the focus of liver injury: reduced neutrophil migration
[9]
  Casp-1 activation induced by LPS/ATP: blocks Casp-1 activation
[10]
  P2X7-mediated YO-PRO-1 dye uptake induced by bzATP: inhibited
[11]
  Caspase-1 activation (active p20 band) induced by nigericin: inhibits
[12]; 10 μM, 72 hours, MOI 20
  lentivirus replication (GFP-positive cells per field): blocked lentivirus GFP expression
[12]; FIG. 22, concentration not given
  replication of GFP-expressing lentivirus: blocks replication
[13]
  L1 retrotransposition (EGFP-positive cells): blocked L1 retrotransposition
[14]
  mtDNA levels: reduces mtDNA levels
[15]
  Alu RNA-induced RPE cell death: prevents Alu RNA-induced RPE cell death in a dose-dependent manner
[16]
  pAlu-induced RPE degeneration: blocked RPE degeneration
[17]; 100 uM, 24 hours after Alu administration
  Alu RNA-induced Caspase-1 maturation: blocked
[17]; concentration not given
  Alu RNA-induced Caspase-1 activation/cleavage: prevents Caspase 1 cleavage
[18]; cells treated with antisense oligonucleotides targeting DICER1
  Alu RNA levels, nuclear compartment: does not reduce Alu RNA levels
[18]; nuclear fraction 1, 4, or 24 hours (FIG. 4), biotin-UTP-labeled Alu RNA (FIG. 45)
  Alu RNA levels after Alu RNA transfection: does not change Alu RNA levels; also recorded: did not reduce Alu RNA levels
[19]; 100 uM, cell culture supernatants
  Caspase-1 activation (active p20 band) induced by LPS/ATP: inhibit Caspase-1 activation
[19]; concentration not given
  LPS/ATP-induced Caspase-1 maturation: inhibited LPS/ATP-induced Caspase-1 maturation
